Measured values as given in patent US20030175848A1, “Substituted dithiobisnitrobenzenes and their applications” (Institut Pasteur De Lille, priority 1998, published 2003).
Where two headings read alike, the source gives them in different places.

Tests used:
[1] = target: T1, human thioredoxin reductase (hTrxR) (Homo sapiens, UniProt Q16881); test: Kinetic parameters of substrates with native hTrxR (placenta); type: biochemical; conditions: substrate of native hTrxR (placenta), 25° C., buffer A pH 7.25, 0.2 mM NADPH
T1 construct: U of native hTrxR; from tissue; host or cells: human placenta
T1 sequence (Q16881 151-649 limits assumed): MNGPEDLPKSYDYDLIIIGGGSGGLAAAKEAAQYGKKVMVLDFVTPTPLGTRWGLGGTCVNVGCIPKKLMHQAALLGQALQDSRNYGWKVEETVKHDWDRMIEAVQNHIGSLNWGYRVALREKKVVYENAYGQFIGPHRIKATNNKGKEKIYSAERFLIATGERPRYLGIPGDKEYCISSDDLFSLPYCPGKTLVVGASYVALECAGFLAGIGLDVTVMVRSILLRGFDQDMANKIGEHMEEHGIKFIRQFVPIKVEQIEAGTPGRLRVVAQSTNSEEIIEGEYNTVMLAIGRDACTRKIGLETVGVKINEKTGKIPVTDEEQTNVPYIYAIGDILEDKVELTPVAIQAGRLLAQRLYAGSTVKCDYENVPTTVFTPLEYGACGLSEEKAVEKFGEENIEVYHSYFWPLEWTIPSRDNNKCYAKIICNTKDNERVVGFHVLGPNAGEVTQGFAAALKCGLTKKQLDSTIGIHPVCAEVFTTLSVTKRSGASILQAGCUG
Procedure: The human thioredoxin reductase (hTrxR) is purified from placenta as specified in J. E. Oblong et al., Biochemistry, 1993, 32, 7271-7277.
The enzyme is added to a reaction mixture comprising 100 mM potassium phosphate, 2 mM EDTA, pH 7.4 and 3 mM DTNB; after the addition of 200 μM NADPH, the increase in the absorbence is measured at 412 nm and at 25° C. Using the DTNB test, one TrxR unit is defined as the NADPH-dependent production of […] of 5-thio-2-nitrobenzoate (ε412 nm=13.6 mM^−1.cm^−1). The TrxR concentrations are determined by measuring subunits containing FAD at 450 nm (ε=11.3 mM^−1.cm^−1).

[2] = target: T2, trypanothione reductase from Trypanosoma cruzi (TcTR) (Trypanosoma cruzi, UniProt P28593); test: Kinetic parameters of substrates with recombinant trypanothione reductase
T2 sequence (P28593 whole entry): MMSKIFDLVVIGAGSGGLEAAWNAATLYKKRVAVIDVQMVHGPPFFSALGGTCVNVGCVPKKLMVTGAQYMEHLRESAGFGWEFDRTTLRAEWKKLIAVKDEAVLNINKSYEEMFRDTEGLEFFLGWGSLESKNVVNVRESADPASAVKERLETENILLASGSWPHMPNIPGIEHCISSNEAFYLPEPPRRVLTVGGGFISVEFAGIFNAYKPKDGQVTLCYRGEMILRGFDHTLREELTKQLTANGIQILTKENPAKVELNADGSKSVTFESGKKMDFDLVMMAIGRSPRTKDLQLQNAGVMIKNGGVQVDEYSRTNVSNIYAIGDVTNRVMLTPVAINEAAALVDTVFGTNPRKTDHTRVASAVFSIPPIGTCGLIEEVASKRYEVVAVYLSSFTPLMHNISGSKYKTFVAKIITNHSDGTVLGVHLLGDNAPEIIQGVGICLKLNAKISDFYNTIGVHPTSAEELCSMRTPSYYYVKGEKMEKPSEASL
Procedure: The TcTR concentration is determined by measuring the number of subunits containing FAD at 461 nm (ε=11.3 mM^−1×cm^−1); the enzymatic activity is tested as specified in (28). One TR unit corresponds to 1 μmol of T(S)2 reduced per minute at 25° C. in a buffer A (20 mM Hepes, pH 7.25 containing 1 mM EDTA and 0.15 M KCl).
The enzyme stock solutions used for the kinetic determinations are pure (verification in SDS-PAGE) and have a specific activity of 137 U/mg in the T(S)2 reduction test performed in the presence of 500 μM NADPH and 518 μM T(S)2 in a buffer A.
All the kinetic studies are carried out in the same buffer at 25° C., in the presence of 200 μM of NADPH.
All the tests were carried out at 25° C. in 20 mM HEPES, 1 Mm EDTA, 150 mM KCl, at pH 7.25 (buffer A) and in the presence of 0.2 mM NADPH.

[3] = target: T3, thioredoxin reductase from Plasmodium falciparum (PfTrxR) (Plasmodium falciparum, UniProt Q25861); test: Kinetic parameters of substrates with recombinant PfTrxR; type: biochemical; conditions: substrate of recombinant PfTrxR; 25° C., buffer A pH 7.25, 0.2 mM NADPH
T3 construct: made in house; host or cells: E. coli SG5 (glutathione reductase deficient)
T3 sequence (Q25861 1-541): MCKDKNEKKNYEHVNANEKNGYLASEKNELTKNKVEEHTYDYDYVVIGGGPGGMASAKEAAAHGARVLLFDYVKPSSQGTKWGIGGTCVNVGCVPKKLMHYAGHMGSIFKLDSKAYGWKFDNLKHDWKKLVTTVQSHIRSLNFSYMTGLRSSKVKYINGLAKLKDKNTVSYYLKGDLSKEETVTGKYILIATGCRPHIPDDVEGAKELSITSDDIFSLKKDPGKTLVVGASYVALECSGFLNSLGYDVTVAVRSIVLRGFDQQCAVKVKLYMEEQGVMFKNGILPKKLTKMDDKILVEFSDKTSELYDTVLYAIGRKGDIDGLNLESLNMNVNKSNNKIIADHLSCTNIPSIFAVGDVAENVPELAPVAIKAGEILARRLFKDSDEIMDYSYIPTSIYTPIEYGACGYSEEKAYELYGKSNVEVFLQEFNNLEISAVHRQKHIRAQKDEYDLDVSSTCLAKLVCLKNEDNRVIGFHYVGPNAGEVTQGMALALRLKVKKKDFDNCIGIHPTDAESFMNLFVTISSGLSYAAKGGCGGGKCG
Procedure: […] Using the DTNB test, one TrxR unit is defined as the NADPH-dependent production of […] of 5-thio-2-nitrobenzoate (ε412 nm=13.6 mM^−1.cm^−1). The TrxR concentrations are determined by measuring subunits containing FAD at 450 nm (ε=11.3 mM^−1.cm^−1).

[4] = target: T1, human thioredoxin reductase (hTrxR); conditions: substrate of native hTrxR (placenta), cited from earlier work; for Km: references [29], [38]
[5] = target: T2, trypanothione reductase from Trypanosoma cruzi (TcTR); set-up: made in house; host or cells: Escherichia coli SG5 carrying pIBITczTR; conditions: cited from earlier work
[6] = target: T3, thioredoxin reductase from Plasmodium falciparum (PfTrxR); conditions: cited from earlier work
[7] = target: T4, Native hTrxR (lung adenocarcinoma cells) (Homo sapiens, UniProt Q16881); conditions: substrate of native hTrxR (lung adenocarcinoma cells); reference [22]; cited from earlier work
T4 construct: host or cells: human lung adenocarcinoma cells (endogenous enzyme, purified)
T4 sequence (Q16881 151-649 limits assumed): T1 sequence (Q16881 151-649 limits assumed)

[8] = substrate of recombinant PfTrxR, reference [26]
[9] = substrate of recombinant TcTR, reference [1]

Molecule: CN(C)CCCNC(=O)c1cc(SSc2ccc([N+](=O)[O-])c(C(=O)NCCCN(C)C)c2)ccc1[N+](=O)[O-] [Compound 1]
- Km [1]: 7 µM
- reduction of Km compared with trypanothione disulphide ([2]; substrate for TR): 30%

Molecule: CN1CCN(C(=O)c2cc(SSc3ccc([N+](=O)[O-])c(C(=O)N4CCN(C)CC4)c3)ccc2[N+](=O)[O-])CC1 [Compound 3]
- Kcat [1]: 38 s⁻¹
- Km ([1]; read-out: Km): 10 µM
- Kcat [3]: 6 s⁻¹
- suitable as substrate (words spread over the Km, Kcat and Kcat/Km cells) ([2]; recombinant TcTR, 25° C., buffer A, 0.2 mM NADPH): Not

Molecule: O=C(O)c1cc(SSc2ccc([N+](=O)[O-])c(C(=O)O)c2)ccc1[N+](=O)[O-] [DTNB, 5,5′-dithiobis(2-nitrobenzoic) acid]
- Kcat ([4]; reference [38]): 67 s⁻¹
- Km [4]: 400 µM
- suitable as substrate (words spread over the Km, Kcat and Kcat/Km cells) ([5]; recombinant TcTR, reference [13]): Not
- Km ([6]; substrate of PfTrxR, stated in text): ~1000 µM
- Kcat [6, 8]: 7 s⁻¹
- Km [6, 8]: 1090 µM

Molecule: N[C@@H](CCC(=O)N[C@H]1CSSC[C@H](NC(=O)CC[C@H](N)C(=O)O)C(=O)NCC(=O)NCCCNCCCCNC(=O)CNC1=O)C(=O)O [TS2, oxidized N^1, N^8-bis(glutathionyl)-spermidine]
- Kcat [5, 9]: 240 s⁻¹
- Km [5, 9]: 45 µM

Molecule: E. coli Trx: thioredoxin (Trx) of E. coli, substrate of thioredoxin reductase
- Km [4]: 20 µM
- Kcat [7]: 5.6 s⁻¹
- Km [7]: 34 µM
- Kcat [6, 8]: >5 s⁻¹
- Km [6, 8]: 66 µM
